According to PMC10514301 (Signal Transduction and Targeted Therapy, 2023):
Several values for one entry are separate records, joined by “and”; a condition that tells them apart may be missing. Equal entries are not always repeated. Where two headings read alike, the source gives them in different places.

Legend:
HCoV-OC43 [1] = assay: Median effect plots of individual drugs against HCoV-OC43 in RD cells; format: cell-based
HCoV-OC43 [2] = assay: Antiviral activity against HCoV-OC43 in RD cells (qRT-PCR); format: cell-based; details: Betacoronavirus 1, OC43, RD, 48 h, read-out: EC50 mean ± sd, RD, OC43
HCoV-OC43 [3] = assay: Antiviral activity against HCoV-OC43 in Huh-7 cells (qRT-PCR); format: cell-based; details: Betacoronavirus 1, OC43, Huh-7, 48 h, read-out: EC50 mean ± sd, Huh-7, OC43
HCoV-229E [4] = assay: Antiviral activity against HCoV-229E in Huh-7 cells (qRT-PCR); format: cell-based; details: Human coronavirus 229E, Huh-7, 48 h, read-out: EC50 mean ± sd, Huh-7, 229E
HCoV-229E [5] = assay: Antiviral activity against HCoV-229E in MRC5 cells (qRT-PCR); format: cell-based; details: Human coronavirus 229E, MRC5, 48 h, read-out: EC50 mean ± sd, MRC5, 229E
HCoV-OC43 [6] = assay: In vivo efficacy against HCoV-OC43 in suckling mice; design: species or system suckling Balb/c mice
[7] = Plasma pharmacokinetics after oral administration in C57BL/6J mice; details: for decrease of plasma Cmax in the VV116-nirmatrelvir combination compared with the individual study / decrease of plasma exposure in the VV116-nirmatrelvir combination compared with the individual study: oral VV116 + nirmatrelvir + ritonavir 50 + 100 + 50 mg/kg
Protocol: The PK studies were conducted at Suzhou HQ Bioscience Co., Ltd. Eighteen C57BL/6J mice (N = 6 for each group, male) were randomly divided into three groups, and fasted for 12 h before dosing. […] The vehicle for oral administration of the test compounds was 5% DMSO + 5% Solutol HS-15 + 5% PEG400 + 85% Saline. Blood sample (70 μL) was collected from the orbit of the first three mice in each group at 0.25, 1.0, 4.0, and 8.0 and the last three mice in each group at 0.5, 2.0, 6.0, and 24 h post-dosing. The sample was taken into EDTA-K2 tubes, and centrifuged at 11,000 rpm for 5 min. The plasma was separated and frozen in a refrigerator at −70 °C for testing. The operation was conducted under an ice water bath. The concentration of analyte in plasma was determined by LC–MS/MS.

Cytotoxicity in RD cells = format: cell-based; details: human
[8] = Betacoronavirus 1, read-out: IC50 (drug concentration that inhibit 50% viral replication), HCoV-OC43, RD cells, MOI 0.1, 48 hpi, median effect plot
[9] = Betacoronavirus 1, OC43, RD, read-out: IC50 (drug concentration that inhibit 50% viral replication)
[10] = male, C57BL/6J, mouse, plasma, po, 50 mg/kg

CC(C)(C)NC(=O)N[C@H](C(=O)N1C[C@H]2[C@@H]([C@H]1C(=O)NC(CC1CCC1)C(=O)C(N)=O)C2(C)C)C(C)(C)C (some centres unmarked) [Boceprevir, boceprevir]
IC50 (HCoV-OC43 [1]; [8]): 26900 nM | slope steepness (m) of the dose-response curve (HCoV-OC43 [1]; OC43): 11.2

N#C[C@@]1(c2ccc3c(N)ncnn23)O[C@H](CO)[C@@H](O)[C@H]1O [GS-441524]
EC50 (HCoV-OC43 [2]): 460 ± 79 nM | EC50 (HCoV-OC43 [3]): 1400 ± 55 nM | EC50 (HCoV-229E [4]): 560 ± 82 nM | EC50 (HCoV-229E [5]): 30 ± 21 nM

Cc1cccc(C)c1OCC(=O)N[C@@H](Cc1ccccc1)[C@@H](O)C[C@H](Cc1ccccc1)NC(=O)[C@H](C(C)C)N1CCCNC1=O [Lopinavir, lopinavir]
IC50 (HCoV-OC43 [1]; [8]): 1440 nM | slope steepness (m) of the dose-response curve (HCoV-OC43 [1]; OC43): 1.94

O=c1nc(NO)ccn1[C@@H]1O[C@H](CO)[C@@H](O)[C@H]1O [NHC, β-d-N4-hydroxycytidine]
slope steepness (m) of the dose-response curve (HCoV-OC43 [1]; HCoV-OC43, RD cells, MOI 0.1, 48 hpi, median effect plot): 2.80 | IC50 (HCoV-OC43 [1]; read-out: IC50 (drug concentration that inhibit 50% viral replication), HCoV-OC43, RD cells, MOI 0.1, 48 hpi, median effect plot): 5680 nM

CC(C)(C)[C@H](NC(=O)C(F)(F)F)C(=O)N1C[C@H]2[C@@H]([C@H]1C(=O)N[C@H](C#N)C[C@@H]1CCNC1=O)C2(C)C [Nirmatrelvir, nirmatrelvir]
IC50 (HCoV-OC43 [1]; [9]): 121 nM | slope steepness (m) of the dose-response curve (HCoV-OC43 [1]; OC43): 4.49 | viral loads (titers, immunoplaque assay) in organs (HCoV-OC43 [6]; VV116 50 mpk, nirmatrelvir 10 and 20 mpk with ritonavir, the two combinations): less than the limit of detection (LOD) | inflammation (cytokine gene expression) in the brain (HCoV-OC43 [6]; VV116 50 mpk, nirmatrelvir 10 mpk, 25 mpk): dramatically reduced inflammation | lung histopathology (hematoxylin and eosin) (HCoV-OC43 [6]; VV116 50 mpk, nirmatrelvir 10 mpk, 25 mpk, Combo 1, Combo 2): significantly improved | inflammation suppression (cytokine gene expression), especially IL-6 in the lungs (HCoV-OC43 [6]; individual VV116 and nirmatrelvir treatments versus Combo 1 and Combo 2): limited inflammation suppression | viral copies in the brain (HCoV-OC43 [6]; oral once a day, VV116 25 and 50 mpk, nirmatrelvir 25 mpk with ritonavir 50 mpk): almost completely cleared | decrease of plasma Cmax in the VV116-nirmatrelvir combination compared with the individual study [7]: 12.5% | decrease of plasma exposure in the VV116-nirmatrelvir combination compared with the individual study [7]: 19.8%

Cc1cnc(C(=O)N[C@H]2CCCCC/C=C\[C@@H]3C[C@@]3(C(=O)NS(=O)(=O)C3CC3)NC(=O)[C@@H]3C[C@@H](Oc4nc5ccccc5c5ccccc45)CN3C2=O)cn1 [Paritaprevir, paritaprevir]
IC50 (HCoV-OC43 [1]; [8]): 2500 nM | slope steepness (m) of the dose-response curve (HCoV-OC43 [1]; OC43): 1.55

CCC(CC)COC(=O)[C@H](C)N[P@](=O)(OC[C@H]1O[C@@](C#N)(c2ccc3c(N)ncnn23)[C@H](O)[C@@H]1O)Oc1ccccc1 [RDV, remdesivir]
EC50 (HCoV-OC43 [2]): 21 ± 35 nM | EC50 (HCoV-229E [4]): 41 nM | CC50 (Cytotoxicity in RD cells): 1570 nM | IC50 (HCoV-OC43 [1]; [9]): 20.2 nM | slope steepness (m) of the dose-response curve (HCoV-OC43 [1]; OC43): 2.40

NC(=O)c1ncn([C@@H]2O[C@H](CO)[C@@H](O)[C@H]2O)n1 [Ribavirin, ribavirin]
IC50 (HCoV-OC43 [1]; [8]): 49500 nM | slope steepness (m) of the dose-response curve (HCoV-OC43 [1]; OC43): 2.19

COc1ccc2c(O[C@@H]3C[C@H]4C(=O)N[C@]5(C(=O)NS(=O)(=O)C6CC6)C[C@H]5/C=C\CCCCN(C)C(=O)[C@@H]4C3)cc(-c3nc(C(C)C)cs3)nc2c1C [Simeprevir, simeprevir]
IC50 (HCoV-OC43 [1]; [8]): 2220 nM | slope steepness (m) of the dose-response curve (HCoV-OC43 [1]; OC43): 2.18

[2H]c1cc([C@]2(C#N)O[C@H](CO)[C@@H](O)[C@H]2O)n2ncnc(N)c12 [X1]
EC50 (HCoV-OC43 [2]): 800 ± 420 nM | EC50 (HCoV-OC43 [3]): 1100 ± 61 nM | EC50 (HCoV-229E [4]): 570 ± 70 nM | EC50 (HCoV-229E [5]): 60 ± 160 nM | AUC(0-t) [7, 10]: 19500 ng·h/mL | Cmax [7, 10]: 10700 ng/mL and 36.6 µM | decrease of plasma Cmax in the VV116-nirmatrelvir combination compared with the individual study [7]: 20.3% | decrease of plasma exposure in the VV116-nirmatrelvir combination compared with the individual study [7]: 13.5%
